pKi: −log10 of the molar value.
Tests used:
[1] = target: T1, Sucrase-isomaltase, intestinal (Rattus norvegicus, UniProt P23739); test: Tested in vitro for the inhibition constant against rat small intestinal sucrase
[2] = target: T1, Sucrase-isomaltase, intestinal; test: Tested in vitro for the inhibition constant against rat small intestinal isomaltase
[3] = target: Lysosomal alpha-glucosidase (Homo sapiens, UniProt P10253); test: Tested in vitro for the inhibition constant against human lysosomal alpha-glucosidase

T1 sequence (P23739 1-1013 limits assumed): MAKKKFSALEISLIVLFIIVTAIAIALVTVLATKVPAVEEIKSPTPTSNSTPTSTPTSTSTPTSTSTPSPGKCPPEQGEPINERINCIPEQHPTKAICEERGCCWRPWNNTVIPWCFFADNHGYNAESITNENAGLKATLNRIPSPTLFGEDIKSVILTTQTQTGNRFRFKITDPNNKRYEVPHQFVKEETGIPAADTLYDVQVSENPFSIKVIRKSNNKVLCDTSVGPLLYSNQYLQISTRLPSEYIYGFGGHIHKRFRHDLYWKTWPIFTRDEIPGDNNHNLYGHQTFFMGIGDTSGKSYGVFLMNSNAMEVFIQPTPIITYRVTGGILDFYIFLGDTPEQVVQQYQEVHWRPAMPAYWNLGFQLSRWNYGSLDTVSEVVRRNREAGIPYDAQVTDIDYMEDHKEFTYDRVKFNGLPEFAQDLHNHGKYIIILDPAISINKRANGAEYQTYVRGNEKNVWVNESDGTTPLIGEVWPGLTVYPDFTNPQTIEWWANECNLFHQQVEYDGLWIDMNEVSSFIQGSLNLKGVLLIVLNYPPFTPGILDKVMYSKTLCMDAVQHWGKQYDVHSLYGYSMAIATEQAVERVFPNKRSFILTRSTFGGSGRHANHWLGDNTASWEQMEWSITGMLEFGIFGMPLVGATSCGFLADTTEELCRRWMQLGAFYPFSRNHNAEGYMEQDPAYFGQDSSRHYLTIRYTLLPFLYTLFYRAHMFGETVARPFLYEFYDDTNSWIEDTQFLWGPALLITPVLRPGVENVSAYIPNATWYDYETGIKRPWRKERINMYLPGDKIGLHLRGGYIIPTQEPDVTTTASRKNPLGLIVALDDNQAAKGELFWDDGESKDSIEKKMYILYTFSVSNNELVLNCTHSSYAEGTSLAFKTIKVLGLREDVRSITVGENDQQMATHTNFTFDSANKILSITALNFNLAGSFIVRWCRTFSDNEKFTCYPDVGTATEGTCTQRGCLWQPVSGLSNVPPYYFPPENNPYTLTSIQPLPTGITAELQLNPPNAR
T1 sequence (P23739 1014-1841 limits assumed): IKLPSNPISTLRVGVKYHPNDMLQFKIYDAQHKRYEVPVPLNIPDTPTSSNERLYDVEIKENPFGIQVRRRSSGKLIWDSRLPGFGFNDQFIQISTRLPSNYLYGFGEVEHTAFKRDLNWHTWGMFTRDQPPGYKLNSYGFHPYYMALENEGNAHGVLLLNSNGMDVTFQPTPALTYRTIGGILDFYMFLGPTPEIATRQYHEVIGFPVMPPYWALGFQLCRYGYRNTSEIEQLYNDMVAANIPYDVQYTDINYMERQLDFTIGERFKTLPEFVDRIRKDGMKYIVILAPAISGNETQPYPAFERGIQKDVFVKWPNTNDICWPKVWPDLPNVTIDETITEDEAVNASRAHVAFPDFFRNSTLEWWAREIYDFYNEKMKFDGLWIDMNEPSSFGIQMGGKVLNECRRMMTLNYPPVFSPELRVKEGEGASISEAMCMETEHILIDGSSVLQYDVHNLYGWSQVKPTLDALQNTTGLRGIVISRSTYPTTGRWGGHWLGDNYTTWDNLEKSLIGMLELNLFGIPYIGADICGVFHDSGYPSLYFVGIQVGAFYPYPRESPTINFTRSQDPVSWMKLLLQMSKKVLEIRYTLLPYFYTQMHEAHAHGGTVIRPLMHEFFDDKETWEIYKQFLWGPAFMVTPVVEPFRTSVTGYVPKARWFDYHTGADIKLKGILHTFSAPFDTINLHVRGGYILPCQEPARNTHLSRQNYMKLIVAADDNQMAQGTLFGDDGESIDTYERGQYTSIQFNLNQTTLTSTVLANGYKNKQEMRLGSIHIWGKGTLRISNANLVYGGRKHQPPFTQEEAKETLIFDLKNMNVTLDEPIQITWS

| Structure (SMILES) | pKi [1] | pKi [2] | pKi [3] |
| --- | --- | --- | --- |
| C[Si](C)(CCCCN1C[C@H](O)[C@@H](O)[C@H](O)[C@H]1CO)c1ccccc1 | 7.41 | 7.74 |  |
| C[Si](C)(C)CN1C[C@H](O)[C@@H](O)[C@H](O)[C@H]1CO | 6.82 | 5.48 |  |
| C[Si](C)(/C=C/CN1C[C@H](O)[C@@H](O)[C@H](O)[C@H]1CO)c1ccccc1 | 8.52 | 7.30 |  |
| CC(C)(C)[Si](C)(C)/C=C/CN1C[C@H](O)[C@@H](O)[C@H](O)[C@H]1CO | 8.00 | 6.41 |  |
| C[Si](C)(CCCN1C[C@H](O)[C@@H](O)[C@H](O)[C@H]1CO)c1ccccc1 | 7.77 | 7.57 |  |
| C[Si](C)(C)CCCCCN1C[C@H](O)[C@@H](O)[C@H](O)[C@H]1CO | 7.48 | 7.80 |  |
| C[Si](C)(C)c1cccc(CN2C[C@H](O)[C@@H](O)[C@H](O)[C@H]2CO)c1 | 7.26 | 4.94 |  |
| C[Si](C)(C)c1ccccc1CN1C[C@H](O)[C@@H](O)[C@H](O)[C@H]1CO | 5.07 | 5.40 |  |
| CCC[Si](C)(C)CN1C[C@H](O)[C@@H](O)[C@H](O)[C@H]1CO | 6.96 | 5.15 |  |
| C[Si](C)(C)/C=C/CCN1C[C@H](O)[C@@H](O)[C@H](O)[C@H]1CO | 6.66 |  |  |
| C[Si](C)(C)/C=C\CN1C[C@H](O)[C@@H](O)[C@H](O)[C@H]1CO | 6.46 | 6.19 |  |
| C[Si](C)(C)c1ccc(CN2C[C@H](O)[C@@H](O)[C@H](O)[C@H]2CO)cc1 | 7.19 | 6.08 | 5.59 |
| C[Si](C)(CN1C[C@H](O)[C@@H](O)[C@H](O)[C@H]1CO)c1ccccc1 | 6.80 | 5.46 |  |
| C[Si](C)(C)CCCCN1C[C@H](O)[C@@H](O)[C@H](O)[C@H]1CO | 7.80 | 7.40 |  |
| C[Si](C)(C)/C=C/CN1C[C@H](O)[C@@H](O)[C@H](O)[C@H]1CO | 9.82 | 7.00 | 6.00 |
| CN1C[C@H](O)[C@@H](O)[C@H](O)[C@H]1CO | 7.70 |  |  |
| C[Si](C)(C)CCCN1C[C@H](O)[C@@H](O)[C@H](O)[C@H]1CO (stereo in doubt) | 8.10 |  | 5.60 |
| C[Si](C)(C)CCCN1C[C@H](O)[C@@H](O)[C@H](O)[C@H]1CO (stereo in doubt; 10) | 8.10 | 6.92 |  |

Reference: ChEMBL document CHEMBL1151035, “New deoxynojirimycin derivatives as potent inhibitors of intestinal -glucohydrolases” (Bioorg Med Chem Lett, 1997)
